According to patent publication US20260053811A1, “METHODS OF TREATING HYPERTENSION IN OBESE SUBJECTS” (Mineralys Therapeutics, Inc., priority 2022, published 2026):
Marks after values point to notes of the source that are not given here.

Test system: hypertensive subjects
Test: Seated automated office blood pressure (AOBP) in randomized, placebo-controlled, dose-ranging study
Type: in vivo, human
Parameters: Difference from placebo in change in blood pressure: unit not given here
Details: for Modelled (ANCOVA) LSM (SEM) change from baseline, seated AOBP SBP / LSM Δ with PRA Baseline <1 ng/mL/h, seated AOBP SBP (ANCOVA): 100 mg QD Parts 1 & 2
Experimental: A randomized, double-blinded, placebo-controlled, dose-ranging, multicenter study was conducted to evaluate the effect of orally administered Compound A HBr on blood pressure for the treatment of hypertension in male and female subjects ≥18 years of age.
The study consists of two parts. For enrollment into Part 1 of the study, a subject's value of plasma renin activity (PRA) must be ≤1 ng/mL/h based on morning measurement. If the value of PRA >1 ng/mL/h based on morning measurement, then subjects may be eligible to enter Part 2 of the study.
For Part 1, 163 enrolled subjects ≥18 years of age were randomized into 6 equal treatment groups (1:1:1:1:1:1) to 12.5 mg BID, 25 mg BID, 12.5 mg QD, 50 mg QD, 100 mg QD, or placebo. After a review of interim clinical data, the 2 lowest dose levels (12.5 mg QD and 12.5 mg BID) were stopped for future randomization due to a lack of consistent meaningful reduction of blood pressure, but the patients randomized to that point remained in the study through completion. Thus, after the review of interim clinical data, subjects were randomized into 4 equal treatment groups (1:1:1:1) to 25 mg BID, 50 mg QD, 100 mg QD, or placebo.
For Part 2, 36 enrolled subjects ≥18 years of age were randomized (5:1) to either 100 mg QD Compound A HBr or placebo such that the Compound A HBr treatment group consisted of approximately 30 subjects and the placebo treatment group will consist of approximately 6 subjects.
Subjects orally administered the assigned study drug (Compound A HBr or placebo) according to the assigned dosing regimen for 8 weeks beginning on Study Day 1. All subjects in Part 1 (regardless of dosing group) received BID dosing to preserve the integrity of the blind; active drug is administered as the morning dose for all QD dose groups. Subjects returned to the research facility or were seen by the clinical investigator or approved home health care professional at the end of Study Weeks 1, 2, 3, 4, 5, 6, 7, and 8 (±2 days) for protocol-defined efficacy and safety assessments and procedures, assessment of adverse events (AEs), and confirmation of compliance with study drug usage. Subjects also completed a telephone visit and blood pressure (BP) check at home approximately 3 days post last dose of study drug. Subjects attended up to 14 full clinic visits, including a pre-Screening visit, a Screening/start of Placebo Run-in visit, a second visit during Placebo Run-in, a clinic visit to initiate the ABPM procedure, a Randomization visit, 8 weekly visits during double-blind treatment, and an end-of-study visit scheduled 4 weeks after the last study treatment for final efficacy and safety assessments.
An automated oscillometric sphygmomanometer device was used to measure the subjects' systolic and diastolic blood pressure in office after approximately 5 minutes of rest in the seated position.
The primary endpoint is the change in office-measured (mean of last 2 of 5 unattended measurements using an automated oscillometric sphygmomanometer device after approximately 5 minutes of rest in the seated position) systolic blood pressure (SBP) from baseline to the end of Study Week 8.
Secondary endpoints of this study were: • (a) Change in 24-hour ambulatory blood pressure monitoring (ABPM) parameters (systolic and diastolic) from baseline to the end of Study Week 7. • (b) Change in office-measured SBP from baseline to the end of Study Weeks 1, 2, 3, 4, 5, 6, and 7. • (c) Change in office-measured diastolic blood pressure (DBP) from baseline to the end of Study Weeks 1, 2, 3, 4, 5, 6, 7, and 8. • (d) Proportion of subjects who achieve office-measured BP of ≤130/80 mm Hg by the end of Study Week 8.

[1] = 100 mg QD Part 2, Week 8, Parts 1 & 2 model, FAS
[2] = PRA Baseline >=1 ng/mL/h, Week 4, FAS
[3] = PRA Baseline >=1 ng/mL/h, Week 8, FAS

## CC(=O)N[C@H]1CC[C@H](NC(=O)CN2CCN(c3nncc(-c4ccc(C)cc4)n3)CC2)CC1 [Compound A HBr]
100 mg QD Part 2 (vs 100 mg QD Part 1 per text), Week 8, FAS
  LSM Δ with Placebo, change from baseline in seated AOBP SBP (MMRM): 0.74 mmHg
100 mg QD Part 2, Week 4, FAS
  LSM Δ with 100 mg QD Part 1, seated AOBP DBP (MMRM): −0.43 mmHg
100 mg QD Part 2, Week 4, Parts 1 & 2 model, FAS
  Modelled (MMRM) LSM (SEM) change from baseline, seated AOBP DBP: −6.30 (1.44) mmHg
[1]
  Modelled (MMRM) LSM (SEM) change from baseline, seated AOBP DBP: −5.55 (1.42) mmHg
  Modelled (MMRM) LSM (SEM) change from baseline, seated AOBP SBP: −11.35 (2.48) mmHg
PRA Baseline <1 ng/mL/h, Week 4, FAS
  Modelled (ANCOVA) LSM (SEM) change from baseline, seated AOBP SBP: −15.42 (3.12) mmHg
PRA Baseline <1 ng/mL/h, Week 8, FAS
  Modelled (ANCOVA) LSM (SEM) change from baseline, seated AOBP SBP: −11.27 (3.13) mmHg
[2]
  LSM Δ with PRA Baseline <1 ng/mL/h, seated AOBP SBP (ANCOVA): 0.18 mmHg
  Modelled (ANCOVA) LSM (SEM) change from baseline, seated AOBP SBP: −15.24 (2.75) mmHg
[3]
  LSM Δ with PRA Baseline <1 ng/mL/h, seated AOBP SBP (ANCOVA): −2.07 mmHg
  Modelled (ANCOVA) LSM (SEM) change from baseline, seated AOBP SBP: −13.34 (2.52) mmHg
100 mg QD, BMI 25-30
  Difference from placebo in change in blood pressure: −2.6
100 mg QD, BMI >30
  Difference from placebo in change in blood pressure: −13.2*
100 mg QD, Part 1, Week 8
  Mean placebo-adjusted reduction in AOBP SBP: 7.81 mmHg
  Proportion of subjects with AOBP ≤130/80 mmHg: 30%
100 mg QD, Part 2, Week 8
  Proportion of subjects with AOBP ≤130/80 mmHg: 54.8%
100 mg QD, Part-1 and Part-2 (interim) combined, N=58 active
  Mean reduction in AOBP systolic BP, placebo-corrected, Full-analysis set: −9.9 mmHg
100 mg QD, Thiazide No
  Difference from placebo in change in blood pressure: −3.3
100 mg QD, Thiazide Yes
  Difference from placebo in change in blood pressure: −11.4*
100 mg QD, Week 1, Part 1, FAS
  Seated AOBP DBP change from baseline (CFB), Mean (SD): 0.98 (8.29) mmHg
  Seated AOBP DBP, Mean (SD): 79.70 (11.07) mmHg
  Seated AOBP SBP change from baseline (CFB), Mean (SD): 0.06 (12.66) mmHg
  Seated AOBP SBP, Mean (SD): 144.41 (14.54) mmHg
100 mg QD, Week 1, Part 2, FAS
  Seated AOBP DBP change from baseline (CFB), Mean: −5.85 mmHg
  Seated AOBP DBP, Mean: 72.19 mmHg
  Seated AOBP SBP change from baseline (CFB), Mean: −11.35 mmHg
  Seated AOBP SBP, Mean: 129.00 mmHg
100 mg QD, Week 2, Part 1, FAS
  Seated AOBP DBP change from baseline (CFB), Mean (SD): −2.14 (9.60) mmHg
  Seated AOBP DBP, Mean (SD): 76.36 (11.90) mmHg
  Seated AOBP SBP change from baseline (CFB), Mean (SD): −5.64 (16.38) mmHg
  Seated AOBP SBP, Mean (SD): 139.04 (18.22) mmHg
100 mg QD, Week 2, Part 2, FAS
  Seated AOBP DBP change from baseline (CFB), Mean: −5.13 mmHg
  Seated AOBP DBP, Mean: 73.10 mmHg
  Seated AOBP SBP change from baseline (CFB), Mean: −8.80 mmHg
  Seated AOBP SBP, Mean: 131.33 mmHg
100 mg QD, Week 3, Part 1, FAS
  Seated AOBP DBP change from baseline (CFB), Mean (SD): −5.48 (9.36) mmHg
  Seated AOBP DBP, Mean (SD): 72.84 (10.83) mmHg
  Seated AOBP SBP change from baseline (CFB), Mean (SD): −9.20 (11.37) mmHg
  Seated AOBP SBP, Mean (SD): 136.56 (14.68) mmHg
100 mg QD, Week 3, Part 2, FAS
  Seated AOBP DBP change from baseline (CFB), Mean: −4.76 mmHg
  Seated AOBP DBP, Mean: 73.72 mmHg
  Seated AOBP SBP change from baseline (CFB), Mean: −8.76 mmHg
  Seated AOBP SBP, Mean: 131.52 mmHg
100 mg QD, Week 4, Part 1, FAS
  LSM Δ with Placebo, seated AOBP DBP (MMRM): −6.42 mmHg
  Modelled (MMRM) LSM (SEM) change from baseline, seated AOBP DBP: −6.96 (1.48) mmHg
